Experimental data: the supplement of paper PMC11281043

Legend:
Danio rerio embryo/larva [1] = assay: max % larvae dead across tested concentrations; max tested concentration (log10 uM): 2; higher = more toxic; extreme values may be limits of the assay; conditions: exposure: 6-8 hpf to 5 dpf, scored at 6 dpf
Danio rerio embryo/larva [2] = assay: BMC craniofacial defects; higher = less potent; conditions: exposure: 6-8 hpf to 5 dpf, scored at 6 dpf
Description: (§1)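 Zebrafish embryos (with chorion) were exposed from 6-8 hpf to each PFAS (8-point half-log series, top concentration up to 100 uM, 0.4% DMSO, sealed plates, 26 C; n = 6 embryos per concentration), rinsed at 5 dpf and scored at 6 dpf by two blinded observers for mortality, hatching and malformations. Endpoint scores are the % of living larvae affected (dead larvae excluded; […]). Curves were fitted with tcpl (cutoff 16%), and the BMC is the concentration at a benchmark response of 21.6%.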

Danio rerio embryo/larva [3] = assay: BMC any abnormality; max tested concentration (log10 uM): 2; higher = less potent; conditions: exposure: 6-8 hpf to 5 dpf, scored at 6 dpf
Summary of the method: (§2)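 Wild-type zebrafish embryos with chorions were placed one per well at 6–8 hpf in 200 μL 10% Hanks' and dosed with an 8-point half-log DMSO series (0.4% DMSO final). Plates were sealed, held at 26 °C with n = 6 per concentration, and larvae were rinsed at 5 dpf. At 6 dpf two blinded assessors scored mortality, hatching and malformations; scores are % of living larvae affected (mortality as % dead), unnormalised. Benchmark concentration was fitted in tcpl (bounded models, lowest AIC) at a benchmark response of 1.349 × baseline standard deviation.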

Danio rerio embryo/larva [4] = assay: BMC edema; higher = less potent; conditions: exposure: 6-8 hpf to 5 dpf, scored at 6 dpf
Summary of the method: as §2

Danio rerio embryo/larva [5] = assay: max % larvae with any abnormality across tested concentrations; max tested concentration (log10 uM): 2; higher = more toxic; extreme values may be limits of the assay; conditions: exposure: 6-8 hpf to 5 dpf, scored at 6 dpf
Danio rerio embryo/larva [6] = assay: max % larvae unhatched across tested concentrations; max tested concentration (log10 uM): 2; higher = more toxic; conditions: exposure: 6-8 hpf to 5 dpf, scored at 6 dpf
Danio rerio embryo/larva [7] = assay: BMC swim bladder non-inflation; higher = less potent; conditions: exposure: 6-8 hpf to 5 dpf, scored at 6 dpf
Summary of the method: as §2

Danio rerio embryo/larva [8] = assay: BMC mortality; max tested concentration (log10 uM): 2; higher = less potent; conditions: exposure: 6-8 hpf to 5 dpf, scored at 6 dpf
Description: as §1

Danio rerio embryo/larva [9] = assay: BMC abnormal position; higher = less potent; conditions: exposure: 6-8 hpf to 5 dpf, scored at 6 dpf
Description: as §1

Danio rerio embryo/larva [10] = assay: max % larvae unhatched across tested concentrations; max tested concentration (log10 uM): 1.60206; higher = more toxic; conditions: exposure: 6-8 hpf to 5 dpf, scored at 6 dpf
Danio rerio embryo/larva [11] = assay: max % larvae dead across tested concentrations; max tested concentration (log10 uM): 1.60206; higher = more toxic; extreme values may be limits of the assay; conditions: exposure: 6-8 hpf to 5 dpf, scored at 6 dpf
Danio rerio embryo/larva [12] = assay: max % larvae with any abnormality across tested concentrations; max tested concentration (log10 uM): 1.60206; higher = more toxic; extreme values may be limits of the assay; conditions: exposure: 6-8 hpf to 5 dpf, scored at 6 dpf
Danio rerio embryo/larva [13] = assay: BMC spinal defects; higher = less potent; conditions: max tested concentration (log10 uM): 2; exposure: 6-8 hpf to 5 dpf, scored at 6 dpf
Description: as §1

Danio rerio embryo/larva [14] = assay: BMC blood pooling; max tested concentration (log10 uM): 2; higher = less potent; conditions: exposure: 6-8 hpf to 5 dpf, scored at 6 dpf
Description: as §1

Danio rerio embryo/larva [15] = assay: BMC tail defects; max tested concentration (log10 uM): 2; higher = less potent; conditions: exposure: 6-8 hpf to 5 dpf, scored at 6 dpf
Description: as §1

Danio rerio embryo/larva [16] = assay: max % larvae unhatched across tested concentrations; max tested concentration (log10 uM): 1.30103; higher = more toxic; conditions: exposure: 6-8 hpf to 5 dpf, scored at 6 dpf
Danio rerio embryo/larva [17] = assay: max % larvae with any abnormality across tested concentrations; max tested concentration (log10 uM): 1.30103; higher = more toxic; extreme values may be limits of the assay; conditions: exposure: 6-8 hpf to 5 dpf, scored at 6 dpf
Danio rerio embryo/larva [18] = assay: max % larvae dead across tested concentrations; max tested concentration (log10 uM): 1.30103; higher = more toxic; extreme values may be limits of the assay; conditions: exposure: 6-8 hpf to 5 dpf, scored at 6 dpf
Danio rerio embryo/larva [19] = assay: BMC any abnormality; max tested concentration (log10 uM): 1.60206; higher = less potent; conditions: exposure: 6-8 hpf to 5 dpf, scored at 6 dpf
Description: as §1

Danio rerio embryo/larva [20] = assay: BMC mortality; max tested concentration (log10 uM): 1.60206; higher = less potent; conditions: exposure: 6-8 hpf to 5 dpf, scored at 6 dpf
Description: as §1

[21] = max tested concentration (log10 uM): 2
[22] = max tested concentration (log10 uM): 1
[23] = max tested concentration (log10 uM): 0.477121

OCCC(F)(F)C(F)(F)C(F)(F)C(F)(F)C(F)(F)C(F)(F)F [2-(Perfluorohexyl)ethanol]
max % larvae dead across tested concentrations (Danio rerio embryo/larva [1]): 8.33%
BMC craniofacial defects (Danio rerio embryo/larva [2]; [21]): 27.9 µM
BMC any abnormality (Danio rerio embryo/larva [3]): 10.4 µM
BMC edema (Danio rerio embryo/larva [4]; [21]): 3.37 µM
max % larvae (Danio rerio embryo/larva [5]): 89.6%
max % larvae unhatched across tested concentrations (Danio rerio embryo/larva [6]): 0%
BMC swim bladder non-inflation (Danio rerio embryo/larva [7]; [21]): 26.2 µM

O=C(O)C(F)(F)C(F)(F)C(F)(F)C(F)(F)C(F)(F)C(F)(F)C(F)(F)C(F)(F)Cl [9-Chloro-perfluorononanoic acid]
BMC mortality (Danio rerio embryo/larva [8]): 31.1 µM
max % larvae dead across tested concentrations (Danio rerio embryo/larva [1]): 100%
BMC craniofacial defects (Danio rerio embryo/larva [2]; [21]): 31.1 µM
BMC any abnormality (Danio rerio embryo/larva [3]): 8.75 µM
BMC edema (Danio rerio embryo/larva [4]; [21]): 17.5 µM
max % larvae (Danio rerio embryo/larva [5]): 100%
BMC abnormal position (Danio rerio embryo/larva [9]; [21]): 80.3 µM
max % larvae unhatched across tested concentrations (Danio rerio embryo/larva [6]): 0%
BMC swim bladder non-inflation (Danio rerio embryo/larva [7]; [21]): 6.38 µM

O=S(=O)(O)C(F)(F)C(F)(F)C(F)(F)C(F)(F)C(F)(F)C(F)(F)C(F)(F)C(F)(F)F [Perfluorooctanesulfonic acid]
BMC mortality (Danio rerio embryo/larva [8]): 9.38 µM
max % larvae dead across tested concentrations (Danio rerio embryo/larva [1]): 100%
BMC craniofacial defects (Danio rerio embryo/larva [2]; [22]): 8.4 µM
BMC any abnormality (Danio rerio embryo/larva [3]): 7.48 µM
BMC edema (Danio rerio embryo/larva [4]; [22]): 8.58 µM
max % larvae (Danio rerio embryo/larva [5]): 100%
BMC abnormal position (Danio rerio embryo/larva [9]; [22]): 9.2 µM
max % larvae unhatched across tested concentrations (Danio rerio embryo/larva [6]): 0%
BMC swim bladder non-inflation (Danio rerio embryo/larva [7]; [22]): 8.02 µM

FC(F)(F)C(F)(F)C(F)(F)C(F)(F)C(F)(F)C(F)(F)CCS [2-(Perfluorohexyl)ethanethiol]
max % larvae unhatched across tested concentrations (Danio rerio embryo/larva [10]): 0%
max % larvae dead across tested concentrations (Danio rerio embryo/larva [11]): 0%
max % larvae (Danio rerio embryo/larva [12]): 16.7%

O=S(=O)(O)C(F)(F)C(F)(F)C(F)(F)C(F)(F)C(F)(F)C(F)(F)C(F)(F)C(F)(F)F [Potassium perfluorooctanesulfonate]
BMC craniofacial defects (Danio rerio embryo/larva [2]; [21]): 8.25 µM
BMC spinal defects (Danio rerio embryo/larva [13]): 26 µM
BMC any abnormality (Danio rerio embryo/larva [3]): 2.77 µM
BMC edema (Danio rerio embryo/larva [4]; [21]): 4.65 µM
BMC blood pooling (Danio rerio embryo/larva [14]): 10.5 µM
max % larvae (Danio rerio embryo/larva [5]): 100%
BMC abnormal position (Danio rerio embryo/larva [9]; [21]): 3.99 µM
max % larvae unhatched across tested concentrations (Danio rerio embryo/larva [6]): 0%
BMC swim bladder non-inflation (Danio rerio embryo/larva [7]; [21]): 2.81 µM
BMC tail defects (Danio rerio embryo/larva [15]): 27.8 µM

CO[Si](C)(CCC(F)(F)C(F)(F)C(F)(F)C(F)(F)C(F)(F)C(F)(F)F)OC [Dimethoxymethyl((perfluorohexyl)ethyl)silane]
max % larvae unhatched across tested concentrations (Danio rerio embryo/larva [10]): 0%
max % larvae dead across tested concentrations (Danio rerio embryo/larva [11]): 0%
max % larvae (Danio rerio embryo/larva [12]): 0%

CC(C)(C)C(=O)CC(=O)C(F)(F)C(F)(F)C(F)(F)F [(Heptafluorobutanoyl)pivaloylmethane]
BMC mortality (Danio rerio embryo/larva [8]): 31.2 µM
max % larvae dead across tested concentrations (Danio rerio embryo/larva [1]): 58.3%
BMC craniofacial defects (Danio rerio embryo/larva [2]; [21]): 26.6 µM
BMC any abnormality (Danio rerio embryo/larva [3]): 23.4 µM
BMC edema (Danio rerio embryo/larva [4]; [21]): 25.6 µM
max % larvae (Danio rerio embryo/larva [5]): 100%
BMC abnormal position (Danio rerio embryo/larva [9]; [21]): 33.1 µM
max % larvae unhatched across tested concentrations (Danio rerio embryo/larva [6]): 0%
BMC swim bladder non-inflation (Danio rerio embryo/larva [7]; [21]): 23 µM

O=C(O)C(F)(F)OC(F)(F)C(F)(F)OC(F)(F)C(F)(F)OC(F)(F)C(F)(F)C(F)(F)C(F)(F)F [Perfluoro-3,6,9-trioxatridecanoic acid]
BMC mortality (Danio rerio embryo/larva [8]): 7.79 µM
max % larvae dead across tested concentrations (Danio rerio embryo/larva [1]): 100%
BMC any abnormality (Danio rerio embryo/larva [3]): 2.47 µM
BMC edema (Danio rerio embryo/larva [4]; [22]): 3.13 µM
max % larvae (Danio rerio embryo/larva [5]): 100%
BMC abnormal position (Danio rerio embryo/larva [9]; [22]): 8.04 µM
max % larvae unhatched across tested concentrations (Danio rerio embryo/larva [6]): 0%
BMC swim bladder non-inflation (Danio rerio embryo/larva [7]; [22]): 1.3 µM

O=C(O)C(F)(F)C(F)(F)C(F)(F)C(F)(F)C(F)(F)C(F)(F)C(F)(F)C(F)(F)C(F)(F)C(F)(F)C(F)(F)C(F)(F)C(F)(F)F [Perfluorotetradecanoic acid]
max % larvae unhatched across tested concentrations (Danio rerio embryo/larva [16]): 0%
max % larvae (Danio rerio embryo/larva [17]): 12.5%
max % larvae dead across tested concentrations (Danio rerio embryo/larva [18]): 0%

NCC(F)(F)C(F)(F)C(F)(F)C(F)(F)C(F)(F)C(F)(F)C(F)(F)C(F)(F)F [1H,1H-Perfluorononylamine]
BMC any abnormality (Danio rerio embryo/larva [19]): 27.2 µM
max % larvae unhatched across tested concentrations (Danio rerio embryo/larva [10]): 0%
max % larvae dead across tested concentrations (Danio rerio embryo/larva [11]): 66.7%
BMC mortality (Danio rerio embryo/larva [20]): 29.9 µM
max % larvae (Danio rerio embryo/larva [12]): 100%

FC(F)(F)C(F)(F)C(F)(F)C(F)(F)C(F)(F)C(F)(F)C(F)(F)CCI [1-Iodo-1H,1H,2H,2H-perfluorononane]
max % larvae unhatched across tested concentrations (Danio rerio embryo/larva [10]): 0%
max % larvae dead across tested concentrations (Danio rerio embryo/larva [11]): 16.7%
max % larvae (Danio rerio embryo/larva [12]): 16.7%

C=C(C)C(=O)OCC(F)(F)C(F)(F)C(F)(F)C(F)(F)C(F)(F)C(F)(F)C(F)(F)F [(Perfluoroheptyl)methyl methacrylate]
max % larvae unhatched across tested concentrations (Danio rerio embryo/larva [10]): 0%
max % larvae dead across tested concentrations (Danio rerio embryo/larva [11]): 0%
max % larvae (Danio rerio embryo/larva [12]): 0%

OCC(F)(F)C(F)(F)C(F)(F)C(F)(F)C(F)(F)C(F)(F)C(F)(F)C(F)(F)C(F)(F)C(F)(F)C(F)(F)F [11:1 Fluorotelomer alcohol]
max % larvae unhatched across tested concentrations (Danio rerio embryo/larva [16]): 0%
max % larvae (Danio rerio embryo/larva [17]): 8.33%

FC(F)(F)C(F)(C(F)(F)F)C(F)(F)C(F)(F)CC1CO1 (centres undefined) [3-(Perfluoro-3-methylbutyl)-1,2-propenoxide]
max % larvae unhatched across tested concentrations (Danio rerio embryo/larva [10]): 0%
max % larvae dead across tested concentrations (Danio rerio embryo/larva [11]): 0%
max % larvae (Danio rerio embryo/larva [12]): 0%

NS(=O)(=O)C(F)(F)C(F)(F)C(F)(F)C(F)(F)C(F)(F)C(F)(F)F [Perfluorohexanesulfonamide]
BMC craniofacial defects (Danio rerio embryo/larva [2]; [23]): 2.4 µM
BMC any abnormality (Danio rerio embryo/larva [3]): 1.45 µM
BMC edema (Danio rerio embryo/larva [4]; [23]): 1.66 µM
max % larvae (Danio rerio embryo/larva [5]): 100%
BMC abnormal position (Danio rerio embryo/larva [9]; [23]): 2.67 µM
max % larvae unhatched across tested concentrations (Danio rerio embryo/larva [6]): 0%
BMC swim bladder non-inflation (Danio rerio embryo/larva [7]; [23]): 2.28 µM
